Assay results published in the NIST ThermoML archive (doi:10.1016/j.jct.2018.01.008).
± gives the expanded uncertainty stated by the source. Values belong to the molecule of their own block, whether it stands above or below them.

Legend:
[1] = Molar enthalpy of transition or fusion; details: DSC
[2] = for Normal melting temperature: DTA
[3] = xn = mol fraction of the nth substance listed; details: 298.15 K, 77 kPa, Crystal of unknown type, Transient plane heat source method

SMILES: O=C(O)CCCCC(=O)O [1,6-hexanedioic acid]
- Molar enthalpy of transition or fusion ([1]; Crystal): 35.8 ± 3.7 kJ/mol
- Normal melting temperature ([2]; Crystal): 150.17 ± 2 °C

SMILES: O=C(O)CCCCCCC(=O)O [1,8-octanedioic acid] + CCCCCCCCCCCCCCCCCC(=O)O
- thermal conductivity ([3]; x2 = 0.936): 0.172 ± 0.013 W/m/K

SMILES: O=C(O)CCCCCCCCC(=O)O [1,10-decanedioic acid]
- Molar enthalpy of transition or fusion ([1]; Crystal): 44.5 ± 4.5 kJ/mol
- Normal melting temperature ([2]; Crystal): 131.8 ± 2 °C

SMILES: O=C(O)CCCCCCC(=O)O [1,8-octanedioic acid]
- Molar enthalpy of transition or fusion ([1]; Crystal 1): 29.1 ± 3 kJ/mol
- Molar enthalpy of transition or fusion ([1]; Crystal 2): 8.67 ± 0.9 kJ/mol
- Normal melting temperature ([2]; Crystal 1): 140.63 ± 2 °C
- Triple point temperature ([2]; Crystal 2, DSC): 405.59 ± 2.1 K

The next lines start with the values.

- thermal conductivity ([3]; x1 = 0.962): 0.1439 ± 0.011 W/m/K
SMILES: CCCCCCCCCCCCCCCCCC(=O)O [octadecanoic acid] + O=C(O)CCCCC(=O)O

- thermal conductivity ([3]; x2 = 0.945): 0.1802 ± 0.013 W/m/K
SMILES: O=C(O)CCCCCCCCC(=O)O [1,10-decanedioic acid] + CCCCCCCCCCCCCCCCCC(=O)O

- Molar enthalpy of transition or fusion ([1]; Crystal): 57.1 ± 5.8 kJ/mol
- Normal melting temperature ([2]; Crystal): 69 ± 2 °C
SMILES: CCCCCCCCCCCCCCCCCC(=O)O [octadecanoic acid]
